Assay results published in patent US20190053492A1, “SUBSTITUTED PYRIDINE COMPOUNDS AS PESTICIDES” (Bayer CropScience Aktiengesellschaft, priority 2016, published 2019).
Read-outs that look alike come from different tables or passages of the source.

Assays:
[1] = log P by HPLC on reversed-phase column (C 18), EEC Directive 79/831 Annex V.A8; format: physicochemical; settings: 55° C.; for LOGP_HCOOH: log P (HCOOH); for chromatographic logP: reversed-phase HPLC column (C 18)
Procedure: Temperature: 55° C. […] Called log P (HCOOH) in the table. […] Called log P (neutral) in the table.

[2] = system: Spodoptera frugiperda; assay: Spodoptera frugiperda spray test; format: in vivo; settings: after 7 days, maize leaf discs; for pest or weed control at 100 g/ha / pest or weed control at 500 g/ha: Spodoptera frugiperda, foliar, 168 h, read-out: efficacy (caterpillars killed)
How it was run: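 Maize leaf discs were sprayed with compound formulated in acetone/DMF and emulsifier-containing water, dried, then infested with Spodoptera frugiperda caterpillars. Percent kill was scored after 7 days, from 100% (all dead) to 0% (none dead).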

[3] = system: Ctenocephalides felis; assay: Ctenocephalides felis oral test; format: in vivo; settings: application rate 100 ppm in citrated cattle blood, after 2 days, adult cat fleas; for pest or weed control at 100 ppm: Ctenocephalides felis, po, 48 h, read-out: efficacy (kill in %)
Procedure: Ctenocephalides felis—Oral Test Solvent: dimethyl sulphoxide To produce a suitable active ingredient formulation, 10 mg of active ingredient are mixed with 0.5 ml of dimethyl sulphoxide. Dilution with citrated cattle blood gives the desired concentration. About 20 unfed adult cat fleas (Ctenocephalides felis) are placed into a chamber which is closed at the top and bottom with gauze. A metal cylinder whose bottom end is closed with parafilm is placed onto the chamber. The cylinder contains the blood/active ingredient formulation, which can be imbibed by the fleas through the parafilm membrane. After 2 days, the kill in % is determined. 100% means that all of the fleas have been killed; 0% means that none of the fleas have been killed.

[4] = system: Phaedon cochleariae; assay: Phaedon cochleariae spray test; format: in vivo; settings: after 7 days, Chinese cabbage leaf discs
How it was run: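 Chinese cabbage leaf discs sprayed with compound in acetone/DMF and emulsifier-containing water, then infested with mustard beetle larvae once dry. Efficacy in % scored after 7 days (100% = all larvae killed, 0% = none).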

[5] = acidic range pH 2.7, 0.1% aqueous formic acid and acetonitrile, reversed-phase column (C 18)
[6] = log P, neutral range, HPLC on reversed-phase column (C 18)
[7] = acidic range at pH 2.7, 0.1% aqueous formic acid and acetonitrile, HPLC on reversed-phase column (C 18)
[8] = pH 2.7, LC-MS acidic range, pH 2.7, 0.1% formic acid/acetonitrile, read-out: log P (acidic) / log P (HCOOH)
[9] = pH 7.8, LC-MS neutral range, pH 7.8, ammonium hydrogencarbonate/acetonitrile, read-out: log P (neutral)
[10] = log P (neutral), HPLC reversed-phase column (C 18)

| LOGP_HCOOH [1, 5] | LOGP_NEUTRAL [1, 6] | LOGP_HCOOH [1, 7] | SMILES | efficacy (caterpillars killed) ([2]; application rate 100 g/ha) [%] | efficacy (caterpillars killed) ([2]; application rate 500 g/ha) [%] | efficacy (kill in %) [3] [%] | efficacy (beetle larvae killed) ([4]; application rate 100 g/ha) [%] | efficacy (beetle larvae killed) ([4]; application rate 500 g/ha) [%] | chromatographic logP [1, 8] | chromatographic logP [1, 9] | pest or weed control at 100 g/ha ([2]; application rate 100 g/ha) [%] | pest or weed control at 500 g/ha ([2]; application rate 500 g/ha) [%] | pest or weed control at 100 ppm [3] [%] | LOGP_NEUTRAL [1, 10] | pest or weed control at 500 g/ha ([4]; Phaedon cochleariae, foliar, 168 h, application rate 500 g/ha, read-out: efficacy (beetle larvae killed)) [%] |
| --- | --- | --- | --- | --- | --- | --- | --- | --- | --- | --- | --- | --- | --- | --- | --- |
| 3.28 | 3.18 |  | N#CC1(NC(=O)c2cc(-c3ccc(C(F)(F)F)cc3)cc(NC(=O)C3CC3)n2)CC1 [Example I-041] | 100 | 100 | 95 | 100 | 100 |  |  |  |  |  |  |  |
| 3.39 | 3.29 |  | N#CC1(NC(=O)c2cc(-c3ccc(OC(F)(F)F)cc3)cc(NC(=O)C3CC3)n2)CC1 [Example I-076] | 100 | 100 | 100 | 100 | 100 |  |  |  |  |  |  |  |
| 3.21 |  |  | CCONC(=O)c1cc(-c2ccc(OC(F)(F)F)cc2)cc(NC(=O)C2CC2)n1 [Example I-235] |  |  | 95 |  | 100 |  |  |  |  |  | 3.14 |  |
|  |  | 4.64 | O=C(NCc1ccc(F)c(C(F)(F)F)c1)c1cc(-c2ccc(OC(F)(F)F)cc2)cc(NC(=O)C2CC2)n1 [Example I-226] | 83 | 100 | 100 |  | 100 |  |  |  |  |  |  |  |
| 4.80 | 4.74 |  | O=C(NCc1ccc(C(F)(F)F)cc1F)c1cc(-c2ccc(OC(F)(F)F)cc2)cc(NC(=O)C2CC2)n1 [Example I-065] | 100 | 100 | 95 |  | 83 |  |  |  |  |  |  |  |
|  | 3.14 | 3.25 | NC(=S)C1(NC(=O)c2cc(-c3ccc(OC(F)(F)F)cc3)cc(NC(=O)C3CC3)n2)CC1 [Example I-189] | 100 | 100 | 100 | 100 | 100 |  |  |  |  |  |  |  |
| 3.58 | 3.47 |  | CC(C)C(=O)Nc1cc(-c2ccc(OC(F)(F)F)cc2)cc(C(=O)NC2(C#N)CC2)n1 [Example I-075] |  | 100 | 100 |  | 100 |  |  |  |  |  |  |  |
|  |  | 3.84 | C#CC(C)NC(=O)c1cc(-c2ccc(OC(F)(F)F)cc2)cc(NC(=O)C2CC2)n1 (stereo not drawn) [Example I-130] | 83 | 100 | 100 | 100 | 100 |  |  |  |  |  |  |  |
| 4.29 | 4.16 |  | O=C(NCc1ccc([N+](=O)[O-])cc1F)c1cc(-c2ccc(OC(F)(F)F)cc2)cc(NC(=O)C2CC2)n1 [Example I-102] | 83 | 100 | 100 | 100 | 100 |  |  |  |  |  |  |  |
| 3.83 |  |  | N#Cc1cccc(CNC(=O)c2cc(-c3ccc(C(F)(F)F)cc3)cc(NC(=O)C3CC3)n2)c1 [Example I-004] |  | 100 | 100 |  | 100 |  |  |  |  |  |  |  |
|  | 2.47 | 2.53 | N#Cc1ccc(CNC(=O)c2cc(-c3ccc([S+]([O-])C(F)F)cc3)cc(NC(=O)C3CC3)n2)cc1 (stereo not drawn) [Example I-179] |  | 83 | 100 | 83 | 100 |  |  |  |  |  |  |  |
|  | 4.19 | 4.33 | CC(C)C(=O)Nc1cc(-c2ccc(OC(F)(F)F)cc2)cc(C(=O)NCc2cc(F)c(C#N)cc2F)n1 [Example I-110] | 100 | 100 | 100 | 100 | 100 |  |  |  |  |  |  |  |
| 3.15 | 3.13 |  | CC(=O)Nc1cc(-c2ccc(C(F)(F)F)cc2)cc(C(=O)NCc2ccc(C#N)cc2)n1 [Example I-017] |  | 100 | 98 |  | 100 |  |  |  |  |  |  |  |
| 4.37 | 5.54 |  | O=C(Cc1ccc(C(F)(F)F)cc1)Nc1cc(-c2ccc(C(F)(F)F)cc2)cc(C(=O)NC2CC2)n1 [Example I-088] | 100 | 83 | 90 |  |  |  |  |  |  |  |  |  |
| 3.49 | 3.37 |  | N#Cc1ccc(CNC(=O)c2cc(-c3ccc(OC(F)(F)F)cc3)cc(NC(=O)C3CC3)n2)cn1 [Example I-051] | 100 | 100 | 100 | 100 | 100 |  |  |  |  |  |  |  |
| 3.78 | 3.68 |  | N#CC1(NC(=O)c2cc(-c3ccc(OC(F)(F)F)cc3)cc(NC(=O)C3CC3)n2)CCC1 [Example I-109] |  | 100 | 100 |  | 100 |  |  |  |  |  |  |  |
| 4.79 | 4.61 |  | O=C(NCc1ccc2c(c1)OC(F)(F)O2)c1cc(-c2ccc(OC(F)(F)F)cc2)cc(NC(=O)C2CC2)n1 [Example I-095] |  | 100 | 95 |  | 83 |  |  |  |  |  |  |  |
|  | 3.30 | 2.88 | O=C(NCc1ccccn1)c1cc(-c2ccc(OC(F)(F)F)cc2)cc(NC(=O)C2CC2)n1 [Example I-116] |  | 100 | 100 | 100 | 100 |  |  |  |  |  |  |  |
|  | 4.41 | 4.51 | N#Cc1ccc(CNC(=O)c2cc(-c3ccc(C(F)(C(F)(F)F)C(F)(F)F)cc3)cc(NC(=O)C3CC3)n2)cc1 [Example I-150] | 100 | 100 | 95 |  |  |  |  |  |  |  |  |  |
|  |  | 3.15 | N#CCNC(=O)c1cc(-c2ccc(OC(F)(F)F)cc2)cc(NC(=O)C2CC2)n1 [Example I-131] | 100 | 100 | 100 |  | 100 |  |  |  |  |  |  |  |

| SMILES | LOGP_HCOOH [1, 5] | LOGP_NEUTRAL [1, 6] | LOGP_HCOOH [1, 7] | efficacy (caterpillars killed) ([2]; application rate 100 g/ha) [%] | efficacy (caterpillars killed) ([2]; application rate 500 g/ha) [%] | efficacy (kill in %) [3] [%] | efficacy (beetle larvae killed) ([4]; application rate 100 g/ha) [%] | efficacy (beetle larvae killed) ([4]; application rate 500 g/ha) [%] | chromatographic logP [1, 8] | chromatographic logP [1, 9] | pest or weed control at 100 g/ha ([2]; application rate 100 g/ha) [%] | pest or weed control at 500 g/ha ([2]; application rate 500 g/ha) [%] | pest or weed control at 100 ppm [3] [%] | LOGP_NEUTRAL [1, 10] | pest or weed control at 500 g/ha ([4]; Phaedon cochleariae, foliar, 168 h, application rate 500 g/ha, read-out: efficacy (beetle larvae killed)) [%] |
| --- | --- | --- | --- | --- | --- | --- | --- | --- | --- | --- | --- | --- | --- | --- | --- |
| COC(=O)N(Cc1ccc(C#N)cc1)C(=O)c1cc(-c2ccc(OC(F)(F)F)cc2)cc(N(C(=O)OC)C(=O)C2CC2)n1 [Example I-232, Methyl (4-cyanobenzyl)({6-[(cyclopropylcarbonyl)(methoxycarbonyl)amino]-4-[4-(trifluoromethoxy)phenyl]pyridin-2-yl}carbonyl)carbamate] |  | 4.31 | 4.30 |  |  |  |  |  | 4.3 | 4.31 | 100 | 100 | 100 |  |  |
| COC(=O)N(C(=O)C1CC1)c1cc(-c2ccc(OC(F)(F)F)cc2)cc(C(=O)NCc2ccc(C#N)cc2)n1 [Example I-233, Methyl {6-[(4-cyanobenzyl)carbamoyl]-4-[4-(trifluoromethoxy)phenyl]pyridin-2-yl}(cyclopropylcarbonyl)carbamate] | 3.90 |  |  |  |  |  |  |  | 3.9 | 3.91 | 100 | 100 | 100 | 3.91 | 100 |
